Consider seven compounds from patent publication US12370161B2, “Composition for treating atopy or pruritus comprising N-acetyl or N-acyl amino acid” (STEMDR INC., priority 2017, dated 2025).

The assay relates to atopic dermatitis-induced Balb/c mouse. In words: SCORAD clinical skin score, DNFB-induced atopic dermatitis in Balb/c mouse. It counts as in vivo. Also noted: key to Mouse 1 Sum / Mean (of Sum, SCORAD) / Mouse 2 Sum / Mouse 3 Sum: sum of symptom grades, each 0 (none) to 3 (severe). Conditions: DNFB Balb/c; for Mouse 1 Erythema: 0.1% in PBS, 200 μL on back skin daily day 22-28, grade 0-3 (0 no symptom, 1 mild, 2 moderate, 3 severe); for Mouse 1 Abrasion / Mouse 1 Dryness / Mouse 1 Edema / Mouse 1 Eschar / Mouse 1 Lichenification / Mouse 1 Sum / Mouse 2 Abrasion / Mouse 2 Dryness / Mouse 2 Edema / Mouse 2 Erythema / Mouse 2 Eschar / Mouse 2 Lichenification / Mouse 2 Sum / Mouse 3 Abrasion / Mouse 3 Dryness / Mouse 3 Edema / Mouse 3 Erythema / Mouse 3 Eschar / Mouse 3 Lichenification / Mouse 3 Sum / Mean (of Sum, SCORAD): 0.1% topical day 22-28; for Mouse 1 Abrasion / Mouse 1 Dryness / Mouse 1 Edema / Mouse 1 Eschar / Mouse 1 Lichenification / Mouse 2 Abrasion / Mouse 2 Dryness / Mouse 2 Edema / Mouse 2 Erythema / Mouse 2 Eschar / Mouse 2 Lichenification / Mouse 3 Abrasion / Mouse 3 Dryness / Mouse 3 Edema / Mouse 3 Erythema / Mouse 3 Eschar / Mouse 3 Lichenification: grade 0-3; for Mouse 1 Sum / Mouse 2 Sum / Mouse 3 Sum: overall dermatitis score, sum of individual scores; for Mean (of Sum, SCORAD): mean of 3 mice. The procedure:
In order to induce atopy-like dermatitis in Balb/c mice, DNFB sensitization was induced by applying 100 μL of 0.35% 2,4-dinitrofluorobenzene (DNFB) (Sigma, USA) in acetone/olive oil (3:1) on the shaved back skin of the mice. Then, dermatitis was induced by applying 100 μL of 0.25% DNFB on days 6, 9, 12, 15, 18 21, 24 and 27 on the shaved back skin. Control mice were treated with a vehicle of the same volume (FIG. 1A).
After dissolving an N-acetyl or N-acylamino acid in phosphate-buffered saline to 0.1%, 200 μL of the solution was applied on the back skin of the mice every day, from day 22 until day 28 for the Balb/c atopic dermatitis model, and from day 15 until day 21 for the Nc/Nga atopic dermatitis model. When the N-acetyl or N-acylamino acid was treated together with DNFB, they were treated with 12-hour intervals in order to avoid direct reaction between the DNFB and the N-acetyl or N-acylamino acid. A non-treated group and a 2,4-dinitrofluorobenzene (DNFB) group were treated with phosphate-buffered saline of the same volume (FIGS. 1A-1B). As the N-acetylamino acid, products purchased from Sigma-Aldrich (USA), MP scientific (USA), TCI (Tokyo Chemical Industry, Japan), Santacruz (USA), etc. were used without purification.
The degree of skin soothing and the severity of atopic dermatitis were evaluated macroscopically according to the previously established SCORAD (SCORing Atopic Dermatitis) method (Oranje et al., 2007). The degree of symptoms such as edema, erythema, eschar, dryness, abrasion, lichenification, etc. was graded from 0 to 3 (0, no symptom; 1, mild; 2, moderate; 3, severe). The overall dermatitis score was determined from the sum of all individual scores (Table 1). The assessment was performed by an investigator who was blind to the grouping of the mice.

Consider `CC(=O)N[C@@H](CCCCN)C(=O)O` [N-acetyl-L-Lysine], for which the “Mouse 1 Erythema” value is 3, the “Mouse 1 Abrasion” value is 2, the “Mouse 1 Dryness” value was found to be 3 and the “Mouse 1 Edema” value was 2. Further, the “Mouse 1 Eschar” value amounted to 2, the “Mouse 1 Lichenification” value came to 1, the “Mouse 1 Sum” value was 13 and the “Mouse 2 Abrasion” value was found to be 2. Also, the “Mouse 2 Dryness” value came to 2, the “Mouse 2 Edema” value came to 3, the “Mouse 2 Erythema” value is recorded as 3 and the “Mouse 2 Eschar” value came out at 2. For the same compound, the “Mouse 2 Lichenification” value was 3, the “Mouse 2 Sum” value was 15, the “Mouse 3 Abrasion” value came out at 2 and the “Mouse 3 Dryness” value was 3. Further, the “Mouse 3 Edema” value came to 2, the “Mouse 3 Erythema” value is given as 3, the “Mouse 3 Eschar” value is given as 2 and the “Mouse 3 Lichenification” value is reported as 2. Also, the “Mouse 3 Sum” value was found to be 14 and the “Mean (of Sum, SCORAD)” value is given as 14.

For `CC(=O)N[C@@H](CC(N)=O)C(=O)O` [N-acetyl-L-asparagine], the “Mouse 1 Erythema” value was 3, the “Mouse 1 Abrasion” value is reported as 3, the “Mouse 1 Dryness” value amounted to 3 and the “Mouse 1 Edema” value came to 2. The “Mouse 1 Eschar” value is 2, the “Mouse 1 Lichenification” value is 2, the Mouse 1 Sum stood at 15 and the “Mouse 2 Abrasion” value worked out at 3. In addition, the “Mouse 2 Dryness” value stood at 2, the “Mouse 2 Edema” value worked out at 2, the “Mouse 2 Erythema” value is reported as 2 and the “Mouse 2 Eschar” value is given as 3. In addition, the “Mouse 2 Lichenification” value stood at 3, the “Mouse 2 Sum” value was determined as 14, the “Mouse 3 Abrasion” value amounted to 2 and the “Mouse 3 Dryness” value was 3. Moreover, the “Mouse 3 Edema” value turned out to be 3, the “Mouse 3 Erythema” value was 3, the “Mouse 3 Eschar” value is 3 and the “Mouse 3 Lichenification” value is given as 2. In addition, the “Mouse 3 Sum” value worked out at 16 and the “Mean (of Sum, SCORAD)” value was 15.

`CC(=O)N[C@@H](CC(=O)O)C(=O)O` [N-acetyl-L-aspartic acid]: the “Mouse 1 Erythema” value is reported as 3, the “Mouse 1 Abrasion” value worked out at 2, the “Mouse 1 Dryness” value stood at 2 and the “Mouse 1 Edema” value is recorded as 2. The “Mouse 1 Eschar” value was found to be 2, the “Mouse 1 Lichenification” value is listed as 2, the “Mouse 1 Sum” value came out at 13 and the “Mouse 2 Abrasion” value is reported as 2. For the same compound, the “Mouse 2 Dryness” value amounted to 3, the “Mouse 2 Edema” value is on record as 2, the “Mouse 2 Erythema” value turned out to be 3 and the “Mouse 2 Eschar” value came to 2. The “Mouse 2 Lichenification” value amounted to 2, the “Mouse 2 Sum” value amounted to 14, the “Mouse 3 Abrasion” value came out at 2 and the “Mouse 3 Dryness” value was determined as 2. For the same compound, the “Mouse 3 Edema” value was 2, the “Mouse 3 Erythema” value is given as 3, the “Mouse 3 Eschar” value came to 2 and the “Mouse 3 Lichenification” value was found to be 1. The “Mouse 3 Sum” value is on record as 12 and the “Mean (of Sum, SCORAD)” value is 13.

Take `CC(=O)N[C@@H](CCC(=O)O)C(=O)O` [N-acetyl-L-glutamic acid]: the “Mouse 1 Erythema” value amounted to 3, the “Mouse 1 Abrasion” value is listed as 2, the “Mouse 1 Dryness” value is on record as 2 and the “Mouse 1 Edema” value stood at 2. The “Mouse 1 Eschar” value amounted to 2, the “Mouse 1 Lichenification” value is given as 3, the “Mouse 1 Sum” value is 14 and the “Mouse 2 Abrasion” value stood at 2. Further, the “Mouse 2 Dryness” value was 3, the “Mouse 2 Edema” value came out at 2, the “Mouse 2 Erythema” value is reported as 2 and the “Mouse 2 Eschar” value is reported as 2. The “Mouse 2 Lichenification” value came out at 2, the “Mouse 2 Sum” value worked out at 13, the “Mouse 3 Abrasion” value was determined as 2 and the “Mouse 3 Dryness” value is on record as 3. Moreover, the “Mouse 3 Edema” value is given as 2, the “Mouse 3 Erythema” value is 1, the “Mouse 3 Eschar” value is 2 and the “Mouse 3 Lichenification” value was 2. The “Mouse 3 Sum” value was 12 and the “Mean (of Sum, SCORAD)” value is 13.

Take `CC(=O)N[C@@H](CCC(N)=O)C(=O)O` [N-acetyl-L-glutamine]: the “Mouse 1 Erythema” value was found to be 2, the “Mouse 1 Abrasion” value was determined as 2, the “Mouse 1 Dryness” value stood at 2 and the “Mouse 1 Edema” value is recorded as 2. Moreover, the “Mouse 1 Eschar” value was 2, the “Mouse 1 Lichenification” value turned out to be 3, the “Mouse 1 Sum” value worked out at 13 and the “Mouse 2 Abrasion” value is 2. In addition, the “Mouse 2 Dryness” value was 2, the “Mouse 2 Edema” value came to 2, the “Mouse 2 Erythema” value came to 2 and the “Mouse 2 Eschar” value is on record as 2. Besides, the “Mouse 2 Lichenification” value is 2, the “Mouse 2 Sum” value was 12, the “Mouse 3 Abrasion” value is on record as 2 and the “Mouse 3 Dryness” value is reported as 2. In addition, the “Mouse 3 Edema” value stood at 2, the “Mouse 3 Erythema” value worked out at 2, the “Mouse 3 Eschar” value is 2 and the “Mouse 3 Lichenification” value was determined as 1. Further, the “Mouse 3 Sum” value is given as 11 and the “Mean (of Sum, SCORAD)” value stood at 12.

For the compound `CC(=O)NCC(=O)O` [N-acetyl-L-glycine], the “Mouse 1 Erythema” value is listed as 3, the “Mouse 1 Abrasion” value came out at 2, the “Mouse 1 Dryness” value is reported as 2 and the “Mouse 1 Edema” value was 2. The “Mouse 1 Eschar” value is 2, the “Mouse 1 Lichenification” value is given as 3, the “Mouse 1 Sum” value is listed as 14 and the “Mouse 2 Abrasion” value is recorded as 2. For the same compound, the “Mouse 2 Dryness” value was 3, the “Mouse 2 Edema” value turned out to be 2, the “Mouse 2 Erythema” value is 3 and the “Mouse 2 Eschar” value amounted to 2. The “Mouse 2 Lichenification” value is 3, the “Mouse 2 Sum” value is on record as 15, the “Mouse 3 Abrasion” value is reported as 2 and the “Mouse 3 Dryness” value is on record as 3. In addition, the “Mouse 3 Edema” value was found to be 2, the “Mouse 3 Erythema” value is 3, the “Mouse 3 Eschar” value is on record as 2 and the “Mouse 3 Lichenification” value turned out to be 3. In addition, the “Mouse 3 Sum” value is reported as 15 and the “Mean (of Sum, SCORAD)” value is on record as 14.67.

Turning to `CC(=O)N[C@@H](Cc1c[nH]cn1)C(=O)O` [N-acetyl-L-histidine], the “Mouse 1 Erythema” value came to 3, the “Mouse 1 Abrasion” value is on record as 2, the “Mouse 1 Dryness” value came out at 3 and the “Mouse 1 Edema” value turned out to be 2. In addition, the “Mouse 1 Eschar” value is 2, the “Mouse 1 Lichenification” value was 3, the “Mouse 1 Sum” value turned out to be 15 and the “Mouse 2 Abrasion” value is reported as 2. Besides, the “Mouse 2 Dryness” value turned out to be 3, the “Mouse 2 Edema” value is 2, the “Mouse 2 Erythema” value is on record as 3 and the “Mouse 2 Eschar” value is given as 2. Also, the “Mouse 2 Lichenification” value worked out at 3, the “Mouse 2 Sum” value is 15, the “Mouse 3 Abrasion” value is 2 and the “Mouse 3 Dryness” value is on record as 3. Also, the “Mouse 3 Edema” value was 2, the “Mouse 3 Erythema” value stood at 3, the “Mouse 3 Eschar” value came out at 2 and the “Mouse 3 Lichenification” value is reported as 2. In addition, the “Mouse 3 Sum” value is 14 and the “Mean (of Sum, SCORAD)” value amounted to 14.67.
